# From US10450549B2, “Aryloxyphenoxypropionate tolerance in turfrgass species and use of AAD1 as a selectable marker” (Dow AgroSciences, LLC, priority 2004, dated 2019)
# Test system: PAT/Cry1F-transformed Arabidopsis
# Assay: T1 Arabidopsis spray test, % visual injury 2 WAT: PAT/Cry1F transformed control
# Assay type: in vivo, Arabidopsis thaliana
# Conditions: for % Injury 20-40% / % Injury <20% / % Injury >40%: number of individuals
# Description: Random individual T1 plants selected for glufosinate resistance above were confirmed for expression of the PAT protein using a PAT ELISA kit (Part no. 7000045, Strategic Diagnostics, Inc., Newark, Del.) to non-destructively confirm fidelity of selection process (manufacturer's protocol). Plants were then randomly assigned to various rates of phenoxy herbicides (dichlorprop or 2,4-D). […] Elevated rates were applied in subsequent trials (50, 200, 800, or 3200 g ae/ha).
# All auxin herbicide applications were made using the DeVilbiss sprayer as described above to apply 703 L/ha spray volume (0.4 ml solution/3-inch pot) or applied by track sprayer in a 187 L/ha spray volume. […] Dichlorprop used was technical grade (Sigma, St. Louis, Mo.) dissolved in DMSO and diluted in water (<1% DMSO final concentration). As herbicide rates increased beyond 800 g ae/ha, the pH of the spray solution became exceedingly acidic, burning the leaves of young, tender Arabidopsis plants and complicating evaluation of the primary effects of the herbicides. It became standard practice to apply these high rates of phenoxy herbicides in 200 mM Tris buffer (pH 9.0) to a final pH of ˜7-8.
# Although Arabidopsis, being a dicot, is not an optimal system for testing ACCase-inhibiting AOPP grass herbicides, AAD1 (v3)-transformed T1 plants were subjected to elevated rates (400-1600 g ae/ha) of RS-haloxyfop acid (internally synthesized) that do cause growth abnormalities and death of wildtype Arabidopsis using the DeVilbiss sprayer as described above. Injury ratings were taken 7 and 14 days after treatment. Likewise, T1 individuals were treated with the pyridyloxyacetate auxin herbicide, fluroxypyr.
# Table 16. […] Response is presented in terms of % visual injury 2 WAT. […] Since each T1 is an independent transformation event, one can expect significant variation of individual T1 responses within a given rate. An arithmetic mean and standard deviation is presented for each treatment. The range in individual response is also indicated in the last column for each rate and transformation. PAT/Cry1F-transformed Arabidopsis served as an auxin-sensitive transformed control. Wildtype Arabidopsis is untransformed.
# (§1) Table 17. T1 Arabidopsis response to a range of dichlroprop rates applied postemergence. Response is presented in terms of % visual injury 2 WAT. […] Since each T1 is an independent transformation event, one can expect significant variation of individual T1 responses within a given rate. An arithmetic mean and standard deviation is presented for each treatment. The range in individual response is also indicated in the last column for each rate and transformation. PAT/Cry1F-transformed Arabidopsis served as an auxin-sensitive transformed control. Wildtype Arabidopsis is untransformed.
# as §1, with “18.” for “17.”, “haloxyfop” for “dichlroprop”, “postemergence at artificially high rates attempting to show tolerance of the dicot Arabidopsis to the graminicide.” for “postemergence.”
# [1] = PAT/Cry1F (transformed control), 50 g ae/ha
# [2] = PAT/Cry1F (transformed control), 200 g ae/ha
# [3] = PAT/Cry1F (transformed control), 800 g ae/ha
structure (smiles),measurement,setting,value
CC(Oc1ccc(Oc2ncc(C(F)(F)F)cc2Cl)cc1)C(=O)O (stereo not drawn) [haloxyfop],% Injury Ave,"100 g ae/ha, PAT/Cry1F",0.0%
same,% Injury Range,"100 g ae/ha, PAT/Cry1F",0%
same,% Injury Ave,"200 g ae/ha, PAT/Cry1F",10.0%
same,% Injury Range,"200 g ae/ha, PAT/Cry1F",10%
same,% Injury Ave,"400 g ae/ha, PAT/Cry1F",27.5%
same,% Injury Range,"400 g ae/ha, PAT/Cry1F",20-30%
same,% Injury Ave,"800 g ae/ha, PAT/Cry1F",78.8%
same,% Injury Range,"800 g ae/ha, PAT/Cry1F",70-85%
same,% Injury Ave,"1600 g ae/ha, PAT/Cry1F",47.5%
same,% Injury Range,"1600 g ae/ha, PAT/Cry1F",80-100%
same,% Injury 20-40%,"100 g ae/ha, PAT/Cry1F",0
same,% Injury <20%,"100 g ae/ha, PAT/Cry1F",4
same,% Injury >40%,"100 g ae/ha, PAT/Cry1F",0
same,% Injury 20-40%,"200 g ae/ha, PAT/Cry1F",0
same,% Injury <20%,"200 g ae/ha, PAT/Cry1F",4
same,% Injury >40%,"200 g ae/ha, PAT/Cry1F",0
same,% Injury 20-40%,"400 g ae/ha, PAT/Cry1F",4
same,% Injury <20%,"400 g ae/ha, PAT/Cry1F",0
same,% Injury >40%,"400 g ae/ha, PAT/Cry1F",0
same,% Injury 20-40%,"800 g ae/ha, PAT/Cry1F",0
same,% Injury <20%,"800 g ae/ha, PAT/Cry1F",0
same,% Injury >40%,"800 g ae/ha, PAT/Cry1F",4
same,% Injury 20-40%,"1600 g ae/ha, PAT/Cry1F",0
same,% Injury <20%,"1600 g ae/ha, PAT/Cry1F",0
same,% Injury >40%,"1600 g ae/ha, PAT/Cry1F",4
"CC(Oc1ccc(Cl)cc1Cl)C(=O)O (racemic) [(R,S)-dichlorprop, 2,4-dichlorophenoxypropionic acid]",% Injury Ave,"PAT/Cry1F, 12.5 g ae/ha",38.1%
same,% Injury Range,"PAT/Cry1F, 12.5 g ae/ha",20-95%
same,individuals with 20-40% injury,"PAT/Cry1F, 12.5 g ae/ha",6
same,individuals with <20% injury,"PAT/Cry1F, 12.5 g ae/ha",0
same,individuals with >40% injury,"PAT/Cry1F, 12.5 g ae/ha",2
same,% Injury Ave,"PAT/Cry1F, 50 g ae/ha",80.0%
same,% Injury Range,"PAT/Cry1F, 50 g ae/ha",50-100%
same,individuals with 20-40% injury,"PAT/Cry1F, 50 g ae/ha",0
same,individuals with <20% injury,"PAT/Cry1F, 50 g ae/ha",0
same,individuals with >40% injury,"PAT/Cry1F, 50 g ae/ha",8
same,% Injury Ave,"PAT/Cry1F, 200 g ae/ha",98.3%
same,% Injury Range,"PAT/Cry1F, 200 g ae/ha",95-100%
same,individuals with 20-40% injury,"PAT/Cry1F, 200 g ae/ha",0
same,individuals with <20% injury,"PAT/Cry1F, 200 g ae/ha",0
same,individuals with >40% injury,"PAT/Cry1F, 200 g ae/ha",8
same,% Injury Ave,"PAT/Cry1F, 800 g ae/ha",100.0%
same,% Injury Range,"PAT/Cry1F, 800 g ae/ha",100%
same,individuals with 20-40% injury,"PAT/Cry1F, 800 g ae/ha",0
same,individuals with <20% injury,"PAT/Cry1F, 800 g ae/ha",0
same,individuals with >40% injury,"PAT/Cry1F, 800 g ae/ha",8
"O=C(O)COc1ccc(Cl)cc1Cl [2,4-D, 2,4-dichlorophenoxyacetic acid]",% Injury Ave,[1],90.7%
same,individuals with 20-40% injury,[1],0
same,individuals with <20% injury,[1],0
same,individuals with >40% injury,[1],15
same,% Injury Ave,[2],97.2%
same,individuals with 20-40% injury,[2],0
same,individuals with <20% injury,[2],0
same,individuals with >40% injury,[2],15
same,% Injury Ave,[3],100.0%
same,individuals with 20-40% injury,[3],0
same,individuals with <20% injury,[3],0
same,individuals with >40% injury,[3],15
